ChEMBL document CHEMBL3860060, “Discovery and Optimization of 1-Phenoxy-2-aminoindanes as Potent, Selective, and Orally Bioavailable Inhibitors of the Na+/H+ Exchanger Type 3 (NHE3)” (J Med Chem, 2016)

Assays:
[1] = Inhibition of cat NHE3 expressed in LAP1 cell assessed as intracellular pH recovery measured for 2 mins by CECF-AM dye based FLIPR assay; details: Felis catus, LAP1, 2 min
[2] = molecular target: T1, Sodium/hydrogen exchanger isoform 3 (Sus scrofa, UniProt Q9XSD0); experiment: Inhibition of pig NHE3 expressed in LAP1 cell assessed as intracellular pH recovery measured for 2 mins by CECF-AM dye based FLIPR assay
T1 sequence (Q9XSD0 whole entry): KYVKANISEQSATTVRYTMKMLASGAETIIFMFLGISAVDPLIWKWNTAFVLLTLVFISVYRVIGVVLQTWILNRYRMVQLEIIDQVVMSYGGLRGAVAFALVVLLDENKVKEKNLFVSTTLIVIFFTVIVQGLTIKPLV

[3] = molecular target: Sodium/hydrogen exchanger 3 (Rattus norvegicus, UniProt P26433); experiment: Inhibition of rat NHE3 expressed in LAP1 cell assessed as intracellular pH recovery measured for 2 mins by CECF-AM dye based FLIPR assay
[4] = molecular target: Sodium/hydrogen exchanger 1 (Homo sapiens, UniProt P19634); experiment: Inhibition of human NHE1 expressed in LAP1 cell assessed as intracellular pH recovery measured for 2 mins by CECF-AM dye based FLIPR assay
[5] = molecular target: T2, Sodium/hydrogen exchanger 2 (Homo sapiens, UniProt Q9UBY0); experiment: Inhibition of human NHE2 expressed in LAP1 cell assessed as intracellular pH recovery measured for 2 mins by CECF-AM dye based FLIPR assay
T2 sequence (Q9UBY0 whole entry): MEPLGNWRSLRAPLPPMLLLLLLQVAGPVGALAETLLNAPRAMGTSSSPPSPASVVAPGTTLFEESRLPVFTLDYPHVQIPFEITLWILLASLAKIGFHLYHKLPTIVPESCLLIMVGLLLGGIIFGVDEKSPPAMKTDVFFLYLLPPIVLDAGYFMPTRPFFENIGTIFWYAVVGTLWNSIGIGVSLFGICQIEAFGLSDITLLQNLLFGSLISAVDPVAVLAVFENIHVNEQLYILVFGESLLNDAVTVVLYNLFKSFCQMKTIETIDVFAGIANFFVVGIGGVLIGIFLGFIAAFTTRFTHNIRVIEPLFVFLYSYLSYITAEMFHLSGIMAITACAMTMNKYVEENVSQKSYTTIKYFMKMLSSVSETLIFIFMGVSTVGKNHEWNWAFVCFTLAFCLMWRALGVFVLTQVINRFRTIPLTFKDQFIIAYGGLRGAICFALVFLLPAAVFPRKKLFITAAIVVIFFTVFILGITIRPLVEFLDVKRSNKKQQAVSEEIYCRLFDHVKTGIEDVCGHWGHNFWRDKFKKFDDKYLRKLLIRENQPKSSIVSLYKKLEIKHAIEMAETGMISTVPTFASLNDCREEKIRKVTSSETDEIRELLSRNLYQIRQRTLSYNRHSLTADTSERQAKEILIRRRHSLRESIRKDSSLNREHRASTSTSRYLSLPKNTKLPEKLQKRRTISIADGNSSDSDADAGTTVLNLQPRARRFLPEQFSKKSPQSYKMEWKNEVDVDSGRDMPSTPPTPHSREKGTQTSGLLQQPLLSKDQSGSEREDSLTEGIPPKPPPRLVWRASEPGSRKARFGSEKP

[6] = molecular target: T3, Sodium/hydrogen exchanger 5 (Homo sapiens, UniProt Q14940); experiment: Inhibition of human NHE5 expressed in LAP1 cell assessed as intracellular pH recovery measured for 2 mins by CECF-AM dye based FLIPR assay
T3 sequence (Q14940 whole entry): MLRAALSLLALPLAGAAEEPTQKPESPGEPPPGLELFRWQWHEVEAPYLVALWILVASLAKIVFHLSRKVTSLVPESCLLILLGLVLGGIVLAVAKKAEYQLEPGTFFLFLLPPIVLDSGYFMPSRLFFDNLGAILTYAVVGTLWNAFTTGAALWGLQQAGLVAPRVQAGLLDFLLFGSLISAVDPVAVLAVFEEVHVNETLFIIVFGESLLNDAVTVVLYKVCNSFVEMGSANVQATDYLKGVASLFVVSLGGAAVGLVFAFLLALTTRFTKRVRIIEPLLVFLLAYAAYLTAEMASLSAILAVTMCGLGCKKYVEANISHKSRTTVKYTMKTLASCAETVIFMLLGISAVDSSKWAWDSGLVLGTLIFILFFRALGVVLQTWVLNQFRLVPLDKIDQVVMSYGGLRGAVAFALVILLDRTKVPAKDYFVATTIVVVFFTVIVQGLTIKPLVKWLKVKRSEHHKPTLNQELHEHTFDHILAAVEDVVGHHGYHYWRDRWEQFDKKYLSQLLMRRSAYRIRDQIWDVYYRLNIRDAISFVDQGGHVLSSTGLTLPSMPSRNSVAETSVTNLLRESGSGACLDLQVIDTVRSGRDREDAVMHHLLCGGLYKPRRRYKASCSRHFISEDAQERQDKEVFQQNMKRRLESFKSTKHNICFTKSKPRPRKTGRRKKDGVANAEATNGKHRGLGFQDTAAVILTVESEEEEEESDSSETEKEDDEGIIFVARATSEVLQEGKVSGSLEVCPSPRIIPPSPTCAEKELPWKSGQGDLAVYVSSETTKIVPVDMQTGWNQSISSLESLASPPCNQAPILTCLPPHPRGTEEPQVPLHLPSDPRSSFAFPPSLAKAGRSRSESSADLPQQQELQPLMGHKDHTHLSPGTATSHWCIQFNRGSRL

[7] = Inhibition of GABA-gated chloride channel (unknown origin); parameters: species or system Homo sapiens
[8] = Inhibition of PDE4 (unknown origin); parameters: species or system Homo sapiens
[9] = Drug metabolism in human hepatic microsomes assessed as compound lability by LC-MS/MS method; assay type: ADME, Microsome; details: liver microsomes, read-out: Drug metabolism
[10] = Drug metabolism in rat hepatic microsomes assessed as compound lability by LC-MS/MS method; assay type: ADME, Microsome; details: liver microsomes, read-out: Drug metabolism
[11] = Drug metabolism in mouse hepatic microsomes assessed as compound lability by LC-MS/MS method; assay type: ADME, Microsome; details: liver microsomes, read-out: Drug metabolism
[12] = Drug metabolism in guinea pig hepatic microsomes assessed as compound lability by LC-MS/MS method; assay type: ADME, Cavia porcellus, Microsome; details: liver microsomes, read-out: Drug metabolism
[13] = Drug metabolism in rabbit hepatic microsomes assessed as compound lability by LC-MS/MS method; assay type: ADME, Oryctolagus cuniculus, Microsome; details: liver microsomes, read-out: Drug metabolism
[14] = Drug metabolism in Landrance pig hepatic microsomes assessed as compound lability by LC-MS/MS method; assay type: ADME, Sus scrofa, Microsome; details: Landrace, liver microsomes, read-out: Drug metabolism
[15] = Drug metabolism in hamster hepatic microsomes assessed as compound lability by LC-MS/MS method; assay type: ADME, Microsome; details: cricetinae, liver microsomes; read-out: Drug metabolism
[16] = Drug metabolism in macaque hepatic microsomes assessed as compound lability by LC-MS/MS method; assay type: ADME, Macaca mulatta, Microsome; details: rhesus monkey, liver microsomes; read-out: Drug metabolism
[17] = Drug metabolism in human hepatic microsomes assessed as compound lability in presence of CYP3A4 inhibitor ketoconazole by LC-MS/MS method; assay type: ADME, Microsome; details: liver microsomes, with ketoconazole (CYP3A4 inhibitor), concentration not stated, read-out: Drug metabolism
[18] = Clearance in human hepatocytes assessed per million cells at 5 uM by LC-MS/MS method; assay type: ADME, cell-based, Hepatocyte
[19] = Drug metabolism in human hepatic microsomes assessed as glucuronidation by LC-MS/MS method; assay type: ADME, Liver, Microsome
[20] = Drug metabolism in rat hepatic microsomes assessed as glucuronidation by LC-MS/MS method; assay type: ADME, Liver, Microsome
[21] = Drug metabolism in dog hepatic microsomes assessed as glucuronidation by LC-MS/MS method; assay type: ADME, Canis lupus familiaris, Liver, Microsome
[22] = Drug metabolism in mouse hepatic microsomes assessed as glucuronidation by LC-MS/MS method; assay type: ADME, Liver, Microsome
[23] = Drug metabolism in rabbit hepatic microsomes assessed as glucuronidation by LC-MS/MS method; assay type: ADME, Oryctolagus cuniculus, Liver, Microsome
[24] = Drug metabolism in guinea pig hepatic microsomes assessed as glucuronidation by LC-MS/MS method; assay type: ADME, Cavia porcellus, Liver, Microsome
[25] = Drug metabolism in hamster hepatic microsomes assessed as glucuronidation by LC-MS/MS method; assay type: ADME, Liver, Microsome; details: cricetinae
[26] = Drug metabolism in monkey hepatic microsomes assessed as glucuronidation by LC-MS/MS method; assay type: ADME, Macaca mulatta, Liver, Microsome; details: rhesus monkey
[27] = Drug metabolism in pig hepatic microsomes assessed as glucuronidation by LC-MS/MS method; assay type: ADME, Sus scrofa, Liver, Microsome
[28] = Drug metabolism in mini pig hepatic microsomes assessed as glucuronidation by LC-MS/MS method; assay type: ADME, Sus scrofa, Liver, Microsome
Cytochrome P450 2C9 = Cytochrome P450 2C9 (Homo sapiens, UniProt P11712); experiment: Inhibition of CYP2C9 in pooled human hepatic microsomes using diclofenac substrate in presence of NADPH; assay type: ADME, Liver
Salmonella typhimurium = experiment: Genotoxicity in Salmonella typhimurium at 300 ug/ml by AMES II test; assay type: toxicity, organism-based; details: salmonella enterica subsp. enterica serovar typhimurium
[29] = Toxicity in Xenopus laevis at 62.5 ug/ml by FETAX assay

Cytochrome P450 2C9, sequence (P11712 whole entry): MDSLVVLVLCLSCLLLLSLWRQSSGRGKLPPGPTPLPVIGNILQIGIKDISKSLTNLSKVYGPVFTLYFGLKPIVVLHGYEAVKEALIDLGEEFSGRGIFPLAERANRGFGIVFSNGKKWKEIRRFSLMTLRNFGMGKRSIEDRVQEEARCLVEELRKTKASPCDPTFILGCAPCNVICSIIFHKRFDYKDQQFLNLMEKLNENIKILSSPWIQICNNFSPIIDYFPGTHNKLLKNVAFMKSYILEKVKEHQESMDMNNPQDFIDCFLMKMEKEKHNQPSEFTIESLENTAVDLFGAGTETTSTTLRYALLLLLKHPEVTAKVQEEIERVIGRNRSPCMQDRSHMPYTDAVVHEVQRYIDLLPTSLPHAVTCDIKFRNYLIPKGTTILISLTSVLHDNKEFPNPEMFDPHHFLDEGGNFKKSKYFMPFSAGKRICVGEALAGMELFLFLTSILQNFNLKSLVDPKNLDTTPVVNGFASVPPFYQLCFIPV
Sodium/hydrogen exchanger 1, sequence (P19634 whole entry): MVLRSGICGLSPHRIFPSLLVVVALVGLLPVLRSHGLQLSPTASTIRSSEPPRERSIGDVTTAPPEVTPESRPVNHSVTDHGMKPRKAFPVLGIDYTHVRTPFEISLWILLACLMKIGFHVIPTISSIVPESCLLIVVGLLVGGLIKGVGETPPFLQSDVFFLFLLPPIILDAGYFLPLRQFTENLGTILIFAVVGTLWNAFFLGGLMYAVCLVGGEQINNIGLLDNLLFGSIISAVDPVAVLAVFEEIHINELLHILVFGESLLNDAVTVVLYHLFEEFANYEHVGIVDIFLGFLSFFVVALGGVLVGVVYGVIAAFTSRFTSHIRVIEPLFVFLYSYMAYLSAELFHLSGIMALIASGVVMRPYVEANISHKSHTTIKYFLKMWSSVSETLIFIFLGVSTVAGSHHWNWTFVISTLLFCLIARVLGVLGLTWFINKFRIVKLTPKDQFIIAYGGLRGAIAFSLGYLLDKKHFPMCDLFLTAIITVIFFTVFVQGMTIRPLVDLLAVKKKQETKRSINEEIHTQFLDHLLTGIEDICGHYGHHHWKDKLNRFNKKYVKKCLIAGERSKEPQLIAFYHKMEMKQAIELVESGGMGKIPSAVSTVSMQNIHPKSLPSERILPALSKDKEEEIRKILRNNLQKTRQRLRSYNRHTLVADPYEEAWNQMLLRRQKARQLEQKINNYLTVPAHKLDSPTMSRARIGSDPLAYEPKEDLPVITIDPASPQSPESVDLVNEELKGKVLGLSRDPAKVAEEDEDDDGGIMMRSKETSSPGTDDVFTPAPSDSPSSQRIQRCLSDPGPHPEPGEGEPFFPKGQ
Sodium/hydrogen exchanger 3, sequence (P26433 whole entry): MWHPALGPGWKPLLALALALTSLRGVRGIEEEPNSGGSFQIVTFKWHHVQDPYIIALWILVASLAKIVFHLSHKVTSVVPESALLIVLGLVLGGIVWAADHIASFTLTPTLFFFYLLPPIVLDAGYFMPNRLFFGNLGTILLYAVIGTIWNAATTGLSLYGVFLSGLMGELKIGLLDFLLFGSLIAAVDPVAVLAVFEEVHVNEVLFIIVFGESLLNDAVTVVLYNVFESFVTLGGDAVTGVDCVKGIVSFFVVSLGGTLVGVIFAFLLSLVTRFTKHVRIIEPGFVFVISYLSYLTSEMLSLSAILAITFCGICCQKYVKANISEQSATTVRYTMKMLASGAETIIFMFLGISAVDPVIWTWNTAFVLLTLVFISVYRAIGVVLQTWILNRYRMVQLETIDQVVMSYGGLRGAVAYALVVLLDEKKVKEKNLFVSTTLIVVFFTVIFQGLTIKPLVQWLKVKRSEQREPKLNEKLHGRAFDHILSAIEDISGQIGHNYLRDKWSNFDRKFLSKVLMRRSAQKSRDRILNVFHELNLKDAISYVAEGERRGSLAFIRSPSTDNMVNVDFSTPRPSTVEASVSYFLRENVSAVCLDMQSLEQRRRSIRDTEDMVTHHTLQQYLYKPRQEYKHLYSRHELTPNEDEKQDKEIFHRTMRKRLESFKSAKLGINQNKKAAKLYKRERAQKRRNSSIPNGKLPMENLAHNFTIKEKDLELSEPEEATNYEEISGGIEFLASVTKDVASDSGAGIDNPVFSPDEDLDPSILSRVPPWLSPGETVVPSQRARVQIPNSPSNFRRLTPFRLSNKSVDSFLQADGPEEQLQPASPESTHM

Cc1nnc(C)n1-c1ccc(O[C@H]2c3cc(Cl)cc(Cl)c3C[C@@H]2N2CC[C@@H](O)C2)c(F)c1.Cl showed an IC50 [1] of 6.1 nM, an IC50 [2] of 7.8 nM and an IC50 [3] of 10.2 nM. For the same compound, the IC50 [4] was over 100000 nM, the IC50 [5] was over 100000 nM and the IC50 [6] was 291 nM. It also gave an IC50 [7] of 12000 nM, an IC50 [8] of 6600 nM and a metabolised [9] of 25%. For the same compound, the metabolised [10] was 25%, the metabolised [11] was 25% and the metabolised [12] was 25%. The metabolised [13] was 25%, the metabolised [14] was 25% and the metabolised [15] was over 60%. It also gave a metabolised [16] of over 60%, a metabolised [17] of 5% and a CLH [18] of 0.12 mL/h. The Drug metabolism [19] was “Metabolite_Notdetected”, the Drug metabolism [20] was “Metabolite_Notdetected” and the Drug metabolism [21] was “Metabolite_Notdetected”. The Drug metabolism [22] was “Metabolite_Notdetected”, the Drug metabolism [23] was “Metabolite_Notdetected” and the Drug metabolism [24] was “Metabolite_Notdetected”. For the same compound, the Drug metabolism [25] was “Metabolite_Notdetected”, the Drug metabolism [26] was “Metabolite_Detected” and the Drug metabolism [27] was “Metabolite_Detected”. For the same compound, the Drug metabolism [28] was “Metabolite_Detected”, the IC50 (Cytochrome P450 2C9) was 900 nM and the Activity (Salmonella typhimurium) was “Non-Toxic”. For the same compound, the Activity [29] was “Non-Toxic”.
